The test system of data set [1] is Balb/c mice. Nature of the data set: In-vivo bioluminescent imaging of LNP compositions (Example 6). Particulars: mRNA dose 5 μg FLUC (CRE/FLUC 1:1 LNP).
The nature of data set [2]: LNP size and polydispersity, Zetasizer Ultra. The format is physicochemical. As for the experimental part: (§1) For each LNP composition, the lipid mix and mRNA solution were mixed at a 1:3 ratio by volume, respectively, on a NanoAssemblr Ignite (Precision Nanosystems) at a total flow rate of 9 mL/min. The resulting compositions were then loaded into Slide-A-Lyzer G2 dialysis cassettes (10 k MWCO) and dialyzed in 200 times sample volume of 1×PBS for 2 hours at room temperature with gentle stirring. The PBS was refreshed, and the compositions were further dialyzed for at least 14 hours at 4° C. with gentle stirring. The dialyzed compositions were then collected and concentrated by centrifugation at 3000×g using Amicon Ultra centrifugation filters (100 k MWCO). The concentrated particles were characterized for size, polydispersity, and particle concentration using Zetasizer Ultra (Malvern Panalytical) and for mRNA encapsulation efficiency using Quant-iT RiboGreen RNA Assay Kit (ThermoFisher Scientific).

Data set [3] is described as follows: mRNA encapsulation efficiency, Quant-iT RiboGreen RNA Assay. Format: physicochemical. As for the experimental part: as §1
In data set [4] the test system is Balb/c mice. Description: In-vivo bioluminescent imaging of LNP compositions (Example 3). As to conditions: for Bioluminescence, Liver / Bioluminescence, Lung / Bioluminescence, Pancreas / Bioluminescence, Spleen / Bioluminescence, Whole body: LNP with 5 μg Fluc+5 μg EPO mRNA intravenously, 4-6 hours post-dose, two values per compound; for Bioluminescence, Whole body: FIG. 1: average radiance (p/s/cm2/sr); for Organ selectivity of delivery: bioluminescent imaging in mice, Example 3. An excerpt: C12-200 is commercially available ionizable lipid and has a chemical name of 1,1′-((2-(4-(2-((2-(bis(2-hydroxydodecyl)amino)ethyl)(2-hydroxydodecyl) amino)ethyl)piperazin-1-yl)ethyl)azanediyl)bis(dodecan-2-ol). A composition composed of ionizable lipid:structural lipid:sterol:EG-lipid (C12-200:DOPE:cholesterol:14:0 PEG2000 PE) at a molar ratio of 35:16:46.5:2.5, respectively. Lipids were solubilized in ethanol. These lipids were mixed at the above-indicated molar ratios and diluted in ethanol (organic phase) to 5.5 mM total lipid concentration. The mRNA solution (aqueous phase) was prepared with RNAse-free water and 100 mM citrate buffer pH 3 for a final concentration of 50 mM citrate buffer. The ionizable lipid to mRNA N:P ratio maintained at 15:1.
All other compositions (i.e., compositions of MC3 (a commercially available ionizable lipid having a chemical name of (6Z,9Z,28Z,31Z)-heptatriacont-6,9,28,31-tetraene-19-yl 4-(dimethylamino)butanoate, and compositions of novel ionizable lipids 7669, 7671, 7668, […], 7650) were composed of ionizable lipid:structural lipid:sterol:PEG-lipid (SDA lipid #:DSPC:cholesterol:14:0 PEG2000 PE) at a molar ratio of 50:38.5:10:1.5, respectively. Lipids were solubilized in ethanol. Compositions were then handled as above, except the formulations were maintained at ionizable lipid to mRNA N:P ratio of 6:1. The lipid mix and mRNA solution were mixed at a 1:3 ratio by volume, respectively, on a NanoAssemblr Ignite (Precision Nanosystems) at a total flow rate of 9 mL/min. Resulting compositions were then loaded into Slide-A-Lyzer G2 dialysis cassettes (10 k MWCO) and dialyzed in 200 times sample volume of 1×PBS for 4 hrs at room temp with gentle stirring. The PBS was refreshed, and the compositions were further dialyzed for at least 14 hrs at 4° C. with gentle stirring. The dialyzed compositions were then collected and concentrated by centrifugation at 2000×g using Amicon Ultra centrifugation filters (100 k MWCO). Concentrated particles were characterized for size, polydispersity, and particle concentration using Zetasizer Ultra (Malvern Panalytical) and for mRNA encapsulation efficiency using Quant-iT RiboGreen RNA Assay Kit (ThermoFisher Scientific).
8-9 week old female Balb/c mice were utilized for bioluminescence-based ionizable lipid screening efforts. Mice were obtained from Jackson Laboratories (JAX Stock: 000651) and allowed to acclimate for one week prior to manipulations. Animals were placed under a heat lamp for a few minutes before introducing them to a restraining chamber. The tail was wiped with alcohol pads (Fisher Scientific) and 100 μL of a lipid nanoparticle composition described above containing 10 μg total mRNA (5 μg Fluc+5 μg EPO) was injected intravenously using a 29G insulin syringe (Covidien). Any resulting bleeding was stemmed using a sterile gauze pad (Fisher Scientific) and animals were placed back into their home cage. 4-6 hours post-dose, animals were injected with 200 μL of 15 mg/mL D-Luciferin (GoldBio) and placed in an isoflurane induction chamber set to deliver 2.5% isoflurane delivered at an oxygen flow rate of 1-2 liters per min. After 5 minutes of isoflurane exposure, mice were placed in set nose cones inside the IVIS Lumina LT imager (PerkinElmer). LivingImage software was utilized for imaging. Whole body bio-luminescence was captured at auto-exposure after which animals were removed from the IVIS and placed into a CO2 chamber for euthanasia. Cardiac puncture was performed on each animal after placing it in dorsal recumbency, and blood collection was performed using a 25G insulin syringe (BD). Blood was collected in Lithium-Heparin coated tubes (Fisher Scientific) and immediately placed on ice. Once all blood samples were collected, tubes were spun at 2000G for 10 minutes using a tabletop centrifuge and plasma was aliquoted into individual Eppendorf tubes (Fisher Scientific) and stored at −80 C for subsequent EPO quantification. […]

Results on eleven compounds are retold here after patent publication US20250049948A1, “NOVEL IONIZABLE LIPIDS AND LIPID NANOPARTICLES AND METHODS OF USING THE SAME” (Sail Biomedicines, Inc., priority 2021, published 2025).

“And” between values parts separate entries of the source, which are not always exact repeats. Equal entries are not always repeated.

For the compound `CCCCCC(CCCCC)CCCOC(=O)CCCCCCCN(CCCCCCCC(=O)OCCCC(CCCCC)CCCCC)CCCCN(C)C` [Compound 2129, bis(4-pentylnonyl) 8,8′-((4-(dimethylamino)butyl)azanediyl) dioctanoate], in data set [1] (4-6 hours post-dose), the “Bioluminescence (IV) Liver” value was 1.4E + 05, the “Bioluminescence (IV) Lung” value turned out to be 2.1E + 03, the “Bioluminescence (IV) Spleen” value was found to be 9.2E + 03 and the “Bioluminescence (IV) Whole Body” value was determined as 1.9E + 04. For the same compound, the “Spleen: Liver Ratio” value in data set [1] (intravenous) was found to be 0.066. In data set [2] (LNP with CRE/FLUC 1:1 mRNA), the PDI is on record as 0.07 and the “Size (nm)” value came to 81.1 nm. In data set [3] (LNP with CRE/FLUC 1:1 mRNA), the “% EE” value is 97.0%.

Regarding `CCCCCCC(CCCCCC)CCCOC(=O)CCCCCCCN(CCO)CCCCCCCC(=O)OCCCC(CCCCCC)CCCCCC` [Compound 2136, bis(4-hexyldecyl) 8,8′-((2-hydroxyethyl)azanediyl)dioctanoate], in data set [2] (LNP with EGFP mRNA), the PDI came out at 0.04 and the “Size (nm)” value amounted to 77.5 nm. The “% EE” value in data set [3] (LNP with EGFP mRNA) is on record as 95.5%.

In the case of `CCCCCCC(CCCCCC)CCCOC(=O)CCCCCCCN(CCCCCCCC(=O)OCCCC(CCCCCC)CCCCCC)CCCCN(C)C` [Compound 7650, 4-hexyldecyl 8-[4-(dimethylamino)butyl-[8-(4-hexyldecoxy)-8-oxo-octyl]amino]octanoate], in data set [4], the “Bioluminescence, Liver” value was 56300 and 83100; the “Bioluminescence, Lung” value was 150000 and 138000; the “Bioluminescence, Pancreas” value is 127000 and 87200; the “Bioluminescence, Spleen” value was 82400 and 108000. Also, in data set [4], the “Bioluminescence, Whole body” value was 12100 and 10900; the “Organ selectivity of delivery” value was “selectively targeted the pancreas and lung over the whole body, liver, or spleen”.

Take `CCCCCCC(CCCCCC)CCCOC(=O)CCCCCCCN(CCCCCCCC(=O)OCCCC(CCCCCC)CCCCCC)CCOCCOCCN(C)C` [Compound 7669, 4-hexyldecyl 8-[2-[2-[2-(dimethylamino)ethoxy]ethoxy]ethyl-[8-(4-hexyldecoxy)-8-oxo-octyl]amino]octanoate]: in data set [4], the “Bioluminescence, Liver” value is 92400 and 129000; the “Bioluminescence, Lung” value was 73000 and 70100; the “Bioluminescence, Pancreas” value is 106000 and 87800; the “Bioluminescence, Spleen” value was 112000 and 91700. In data set [4], the “Bioluminescence, Whole body” value is 5120 and 2920; the “Organ selectivity of delivery” value is “selectively targeted the pancreas and lung over the whole body, liver, or spleen”.

As to `CCCCCC(CCCCC)CCCN(C)C(=O)CCCCCCCN(CCCCCCCC(=O)N(C)CCCC(CCCCC)CCCCC)C(=O)CCN1CCCC1` [Compound 2242, N-methyl-8-(N-(8-(methyl(4-pentylnonyl)amino)-8-oxooctyl)-3-(pyrrolidin-1-yl)propanamido)-N-(4-pentylnonyl)octanamide], in data set [2] (LNP with FLUC/EPO 1:1 mRNA), the PDI is listed as 0.079 and the “Size (nm)” value came to 154.2 nm. Besides, the “% EE” value in data set [3] (LNP with FLUC/EPO 1:1 mRNA) turned out to be 89.5%.

`CCCCCCCCCCC(O)CN(CCN1CCN(CCN(CC(O)CCCCCCCCCC)CC(O)CCCCCCCCCC)CC1)CCN(CC(O)CCCCCCCCCC)CC(O)CCCCCCCCCC` (stereo not drawn) [Compound C12-200, 1,1′-((2-(4-(2-((2-(bis(2-hydroxydodecyl)amino)ethyl)(2-hydroxydodecyl)amino)ethyl)piperazin-1-yl)ethyl)azanediyl)bis(dodecan-2-ol), reference compound]: in data set [4], the “Bioluminescence, Liver” value was 92300000 and 69700000; the “Bioluminescence, Pancreas” value was 236000 and 216000; the “Bioluminescence, Spleen” value was 1280000 and 1390000.

In the case of `CCCCCCC(CCCCCC)CCCOC(=O)CCCCCCCN(CCCCCCCC(=O)OCCCC(CCCCCC)CCCCCC)CCC(O)CN(C)C` (stereo not drawn) [Compound 7676, 4-hexyldecyl 8-[[4-(dimethylamino)-3-hydroxy-butyl]-[8-(4-hexyldecoxy)-8-oxo-octyl]amino]octanoate], in data set [4], the “Bioluminescence, Liver” value is 183000 and 161000; the “Bioluminescence, Lung” value was 262000 and 170000; the “Bioluminescence, Pancreas” value is 177000 and 220000; the “Bioluminescence, Spleen” value is 255000 and 259000. Besides, in data set [4], the “Bioluminescence, Whole body” value was 50900 and 30400; the “Organ selectivity of delivery” value was “selectively targeted the pancreas and lung over the whole body, liver, or spleen”.

On to `CCCCCCC(CCCCCC)CCCOC(=O)CCCCCCCN(CCCCCCCC(=O)OCCCC(CCCCCC)CCCCCC)C(=O)CCN1CCCC1` [Compound 7671, 4-hexyldecyl 8-[[8-(4-hexyldecoxy)-8-oxo-octyl]-(3-pyrrolidin-1-ylpropanoyl)amino]octanoate], for which, in data set [4], the “Bioluminescence, Liver” value was 296000 and 184000; the “Bioluminescence, Lung” value was 215000 and 180000; the “Bioluminescence, Pancreas” value was 141000 and 185000; the “Bioluminescence, Spleen” value was 422000 and 574000. Moreover, in data set [4], the “Bioluminescence, Whole body” value was 780000 and 772000; the “Organ selectivity of delivery” value is “selectively targeted the pancreas and lung over the whole body, liver, or spleen”.

Consider `CCCCCCC(CCCCCC)CCCOC(=O)CCCCCCCN(CCCCCCCC(=O)OCCCC(CCCCCC)CCCCCC)C(=O)CCCN(C)C` [Compound 7668, 4-hexyldecyl 8-[4-(dimethylamino)butanoyl-[8-(4-hexyldecoxy)-8-oxo-octyl]amino]octanoate], for which, in data set [4], the “Bioluminescence, Spleen” value was 56400 and 60500; the “Bioluminescence, Whole body” value is 48500 and 26900; the “Organ selectivity of delivery” value was “selectively targeted the pancreas and lung over the whole body, liver, or spleen”.

Turning to `CCCCC/C=C\C/C=C\CCCCCCCCC(CCCCCCCC/C=C\C/C=C\CCCCC)OC(=O)CCCN(C)C` [MC3, (6Z,9Z,28Z,31Z)-heptatriacont-6,9,28,31-tetraene-19-yl 4-(dimethylamino)butanoate, reference compound], in data set [4], the “Bioluminescence, Liver” value was 22000000 and 20300000; the “Bioluminescence, Lung” value is 300000 and 258000; the “Bioluminescence, Pancreas” value was 192000 and 232000; the “Bioluminescence, Spleen” value was 1660000 and 2060000.

Regarding `CCCCCC(CCCCC)CCCOC(=O)CCCCCCCN(CCO)CCCCCCCC(=O)OCCCC(CCCCC)CCCCC` [Compound 2135, bis(4-pentylnonyl) 8,8′-((2-hydroxyethyl)azanediyl)dioctanoate], in data set [2] (LNP with EGFP mRNA), the PDI is on record as 0.04 and the “Size (nm)” value is reported as 81.8 nm. Also, the “% EE” value in data set [3] (LNP with EGFP mRNA) is recorded as 96.2%.
